Melting point and IC50 data for 26 compounds are collected here from US8785460B2, “Tricyclic compounds and use thereof” (Takeda Pharmaceutical Company Limited, priority 2008, dated 2014).

In one data set the target is T1, human CRF1 receptor (Homo sapiens, UniProt P34998).
T1 construct: expressed in transfected cells; host or cells: CHO cells (membrane fraction)
T1 sequence (P34998 24-415): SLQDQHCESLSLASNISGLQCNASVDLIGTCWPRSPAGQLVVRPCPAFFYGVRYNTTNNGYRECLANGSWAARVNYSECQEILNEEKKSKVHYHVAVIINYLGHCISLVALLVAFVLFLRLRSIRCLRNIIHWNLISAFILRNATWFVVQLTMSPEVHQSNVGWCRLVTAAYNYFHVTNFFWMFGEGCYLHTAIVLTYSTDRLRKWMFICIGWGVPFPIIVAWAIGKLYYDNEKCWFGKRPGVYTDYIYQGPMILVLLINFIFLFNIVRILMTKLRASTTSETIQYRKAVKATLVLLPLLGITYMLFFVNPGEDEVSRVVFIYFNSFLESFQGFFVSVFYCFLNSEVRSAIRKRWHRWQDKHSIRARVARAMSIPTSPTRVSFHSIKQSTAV
Description: Measurement of CRF Binding Inhibitory Rate (receptor binding experiment with 125I-CRF). Conditions: human CRF1 receptor expressing CHO cellular membrane fraction, 50 pM 125I-CRF, room temperature 1.5 hr, 0.05 nM to 10 μM of compound; read-out: IC50 values (CRF binding inhibition).

Compound `CCN(CC)c1cccc2nc3n(c12)CC(OC)CCN3c1ccc(Cl)cc1Cl` (stereo not shown) [Example 358, 1-(2,4-Dichlorophenyl)-N,N-diethyl-4-methoxy-2,3,4,5-tetrahydro-1H-[1,3]diazepino[1,2-a]benzimidazol-7-amine] came in with a melting point of 120 to 122 °C. The IC50 on human CRF1 receptor was below 1 µM.

`Cc1cc(C#N)ccc1N1CCCn2c1nc1c(Cl)ccc(C(OC(F)F)C(F)(F)F)c12` (stereo not shown) [Example 325, 4-{9-chloro-6-[1-(difluoromethoxy)-2,2,2-trifluoroethyl]-3,4-dihydropyrimido[1,2-a]benzimidazol-1(2H)-yl}-3-methylbenzonitrile] showed a melting point of 195 to 197 °C. Also, the IC50 on human CRF1 receptor is below 1 µM.

Consider `CCN(CC)c1cccc2nc3n(c12)CC(O)CCN3c1ccc(Cl)cc1Cl` (stereo not shown) [Example 70, 1-(2,4-Dichlorophenyl)-7-(diethylamino)-2,3,4,5-tetrahydro-1H-[1,3]diazepino[1,2-a]benzimidazol-4-ol], for which the melting point was in the range of 207 to 208 °C. In addition, at human CRF1 receptor, the IC50 was below 1 µM.

`CCC(CC(N)=O)c1cccc2nc3n(c12)CCCN3c1ccc(Cl)cc1Cl` (stereo not shown) [Example 205, 3-[1-(2,4-Dichlorophenyl)-1,2,3,4-tetrahydropyrimido[1,2-a]benzimidazol-6-yl]pentanamide] came in with a melting point of 132 to 133 °C. Moreover, the IC50 on human CRF1 receptor is below 1 µM.

`CCC(O)c1ccc(Cl)c2nc3n(c12)CCCN3c1c(Cl)cc(OC)cc1Cl` (stereo not shown) [Example 394, 1-[9-Chloro-1-(2,6-dichloro-4-methoxyphenyl)-1,2,3,4-tetrahydropyrimido[1,2-a]benzimidazol-6-yl]propan-1-ol]: the melting point fell in the range of 206 to 208 °C. Also, the IC50 at human CRF1 receptor is below 1 µM.

In turn, `CCC(O)(CC)c1ccc(Cl)c2nc3n(c12)CCCN3c1ccc(Cl)cc1C(F)(F)F` [Example 128, 3-{9-Chloro-1-[4-chloro-2-(trifluoromethyl)phenyl]-1,2,3,4-tetrahydropyrimido[1,2-a]benzimidazol-6-yl}pentan-3-ol] came in with a melting point of 178 to 180 °C. Moreover, the IC50 on human CRF1 receptor was below 1 µM.

Compound `CCC(OCC(F)(F)F)c1ccc(Cl)c2nc3n(c12)CCCN3c1ccc(OC)nc1C` (stereo not shown) [Example 272, 9-Chloro-1-(6-methoxy-2-methylpyridin-3-yl)-6-[1-(2,2,2-trifluoroethoxy)propyl]-1,2,3,4-tetrahydropyrimido[1,2-a]benzimidazole] returned a melting point of 124 to 126 °C. The IC50 on human CRF1 receptor was below 1 µM.

Regarding `COc1ccc(N2CCCn3c2nc2c(Cl)ccc(C(O)(C4CC4)C4CC4)c23)c(C)n1` [Example 276, [9-Chloro-1-(6-methoxy-2-methylpyridin-3-yl)-1,2,3,4-tetrahydropyrimido[1,2-a]benzimidazol-6-yl](dicyclopropyl)methanol], the melting point was 208 to 210 °C. Moreover, the IC50 on human CRF1 receptor was below 1 µM.

In turn, `CCN(CC)c1cccc2nc3n(c12)CC(N)CCN3c1ccc(Cl)cc1Cl` (stereo not shown) [Example 363, 1-(2,4-Dichlorophenyl)-N^7,N^7-diethyl-2,3,4,5-tetrahydro-1H-[1,3]diazepino[1,2-a]benzimidazole-4,7-diamine] returned a melting point of 149 to 151 °C. The IC50 at human CRF1 receptor was below 1 µM.

The compound `Cc1cnc(N2CCCn3c2nc2c(Cl)ccc(C(O)(C4CC4)C4CC4)c23)c(C)n1` [Example 176, [9-Chloro-1-(3,5-dimethylpyrazin-2-yl)-1,2,3,4-tetrahydropyrimido[1,2-a]benzimidazol-6-yl](dicyclopropyl)methanol] came in with a melting point of 152 to 153 °C. Besides, the IC50 at human CRF1 receptor is below 1 µM.

With `CCC(CC)c1ccc(Cl)c2nc3n(c12)CCCCN3c1ccc(N(C)C)cc1OC(F)(F)F` [Example 53, 4-[10-Chloro-7-(1-ethylpropyl)-2,3,4,5-tetrahydro-1H-[1,3]diazepino[1,2-a]benzimidazol-1-yl]-N,N-dimethyl-3-(trifluoromethoxy)aniline], the melting point lay in the range of 158 to 159 °C. Also, the IC50 at human CRF1 receptor was below 1 µM.

As for `CCC(CC)c1ccc(Cl)c2nc3n(c12)CC(C)N3c1cnc(N(C)C)cc1C` (stereo not shown) [Example 78, 5-[8-Chloro-5-(1-ethylpropyl)-2-methyl-2,3-dihydro-1H-imidazo[1,2-a]benzimidazol-1-yl]-N,N,4-trimethylpyridin-2-amine], the melting point lay in the range of 204 to 206 °C. Further, on human CRF1 receptor, the IC50 was below 1 µM.

For the compound `CCC(O)c1cccc2nc3n(c12)CCCCN3c1ccc(Cl)cc1Cl` (stereo not shown) [Example 68, 1-[1-(2,4-Dichlorophenyl)-2,3,4,5-tetrahydro-1H-[1,3]diazepino[1,2-a]benzimidazol-7-yl]propan-1-ol], the melting point lay in the range of 241 to 243 °C. The IC50 on human CRF1 receptor was below 1 µM.

Turning to `CCC(CC)c1ccc(Cl)c2nc3n(c12)CCCCN3c1ccc(SC)cc1C` [Example 44, 10-Chloro-7-(1-ethylpropyl)-1-[2-methyl-4-(methylthio)phenyl]-2,3,4,5-tetrahydro-1H-[1,3]diazepino[1,2-a]benzimidazole], the melting point was 113 to 115 °C. Also, the IC50 at human CRF1 receptor was below 1 µM.

As for `CCC(CC)c1ccc(Cl)c2nc3n(c12)CCCC(=O)N3c1ccc(Cl)cc1Cl` [Example 22, 10-Chloro-1-(2,4-dichlorophenyl)-7-(1-ethylpropyl)-4,5-dihydro-1H-[1,3]diazepino[1,2-a]benzimidazol-2(3H)-one], the melting point lay within 135 to 137 °C. At human CRF1 receptor, the IC50 was below 1 µM.

In the case of `CCC(OC(C)=O)c1ccc(Cl)c2nc3n(c12)CCCN3c1ccc(C(C)(C)O)cc1Cl` (stereo not shown) [Example 252, 1-{9-Chloro-1-[2-chloro-4-(1-hydroxy-1-methylethyl)phenyl]-1,2,3,4-tetrahydropyrimido[1,2-a]benzimidazol-6-yl}propyl acetate], the melting point was in the range of 184 to 186 °C. Also, the IC50 at human CRF1 receptor is below 1 µM.

As for `CCC(c1ccc(Cl)c2nc3n(c12)CCCN3c1c(C)nc(OC)nc1C)C(F)F` (stereo not shown) [Example 222, 9-Chloro-6-[1-(difluoromethyl)propyl]-1-(2-methoxy-4,6-dimethylpyrimidin-5-yl)-1,2,3,4-tetrahydropyrimido[1,2-a]benzimidazole], the melting point lay within 181 to 183 °C. At human CRF1 receptor, the IC50 is below 1 µM.

Compound `COC(C)(C)c1ccc(Cl)c2nc3n(c12)CCCN3c1ccc(Cl)cc1Cl` [Example 109, 9-Chloro-1-(2,4-dichlorophenyl)-6-(1-methoxy-1-methylethyl)-1,2,3,4-tetrahydropyrimido[1,2-a]benzimidazole] displayed a melting point of 203 to 204 °C. In addition, the half-inhibitory concentration (IC50) at human CRF1 receptor was below 1 µM.

`CCCC(O)(CCC)c1ccc(Cl)c2nc3n(c12)CCCN3c1c(C)cc(Cl)cc1Cl` [Example 139, 4-[9-Chloro-1-(2,4-dichloro-6-methylphenyl)-1,2,3,4-tetrahydropyrimido[1,2-a]benzimidazol-6-yl]heptan-4-ol] yielded a melting point of 176 to 178 °C. In addition, the half-inhibitory concentration (IC50) at human CRF1 receptor was below 1 µM.

On to `CCC(OC(C)=O)c1ccc(Cl)c2nc3n(c12)CCCN3c1ccc(C(C)=O)cc1Cl` (stereo not shown) [Example 250, 1-[1-(4-Acetyl-2-chlorophenyl)-9-chloro-1,2,3,4-tetrahydropyrimido[1,2-a]benzimidazol-6-yl]propyl acetate], for which the melting point lay within 183 to 186 °C. Besides, the IC50 at human CRF1 receptor was below 1 µM.

As for `O=C(OC(c1ccc(Cl)c2nc3n(c12)CCCN3c1ccc(Cl)cc1Cl)C1CC1)C1CC1` (stereo not shown) [Example 478, 1-[9-Chloro-1-(2,4-dichlorophenyl)-1,2,3,4-tetrahydropyrimido[1,2-a]benzimidazol-6-yl](cyclopropyl)methyl cyclopropanecarboxylate], the melting point lay in the range of 168 to 170 °C. For the same compound, the IC50 on human CRF1 receptor is below 1 µM.

With `CCC(CC)c1ccc(Cl)c2nc3n(c12)CCCN3c1cnc(N(C)C)cc1C` [Example 336, 5-[9-Chloro-6-(1-ethylpropyl)-3,4-dihydropyrimido[1,2-a]benzimidazol-1(2H)-yl]-N,N,4-trimethylpyridin-2-amine], the melting point lay in the range of 228 to 230 °C. The IC50 on human CRF1 receptor is below 1 µM.

For `CCC(COC)c1ccc(Cl)c2nc3n(c12)CCCN3c1ccc(Cl)cc1Cl` (stereo not shown) [Example 149, 9-Chloro-1-(2,4-dichlorophenyl)-6-[1-(methoxymethyl)propyl]-1,2,3,4-tetrahydropyrimido[1,2-a]benzimidazole], the melting point lay within 130 to 131 °C. For the same compound, the IC50 at human CRF1 receptor is below 1 µM.

The compound `Cc1cc(Cl)cc(Cl)c1N1CCn2c1nc1cccc(C(O)(C3CC3)C3CC3)c12` [Example 428, Dicyclopropyl[1-(2,4-dichloro-6-methylphenyl)-2,3-dihydro-1H-imidazo[1,2-a]benzimidazol-5-yl]methanol] gave a melting point of 243 to 246 °C. Further, on human CRF1 receptor, the IC50 was below 1 µM.

Regarding `CCC(OC)c1ccc(Cl)c2nc3n(c12)CCCN3c1ccc(Cl)cc1C(F)(F)F` (stereo not shown) [Example 133, 9-Chloro-1-[4-chloro-2-(trifluoromethyl)phenyl]-6-(1-methoxypropyl)-1,2,3,4-tetrahydropyrimido[1,2-a]benzimidazole], the melting point was 202 to 203 °C. In addition, the IC50 at human CRF1 receptor was below 1 µM.

Compound `CCC(CC)c1ccc(Cl)c2nc3n(c12)CC(=O)N3c1ccc(Cl)cc1Cl` [Example 4, 8-Chloro-1-(2,4-dichlorophenyl)-5-(1-ethylpropyl)-1H-imidazo[1,2-a]benzimidazol-2(3H)-one] displayed a melting point of 200 to 202 °C. The IC50 on human CRF1 receptor was below 1 µM.

For orientation: melting point means the temperature, or range, at which the solid turns liquid. In general, IC50 refers to the concentration that gives 50% inhibition.
